Patent US20230293560A1, “METHOD FOR MODULATING THE BLADDER MICROBIOME TO IMPROVE BLADDER HEALTH” (Kimberly-Clark Worldwide, Inc., priority 2020, published 2023)
Several values for one entry are separate records, joined by “and”; a condition that tells them apart may be missing. Equal entries are not always repeated.

What was measured:
[1] = system: ratio of L. crispatus/S. anginosus; assay: Therapeutic effect protocol (competition assay); type: cell-based, Lactobacillus crispatus; Streptococcus anginosus; settings: Lc-3 vs Sa-2
Description: As used herein, the term “therapeutic effect” refers to the ability of the compositions and formulations of the present disclosure to stimulate the growth of L. crispatus relative S. anginosus measured according to the therapeutic effect protocol described below. The therapeutic effect can be expressed as a ratio of L. crispatus to S. anginosus and is desirably greater than about 100, more preferably greater than about 500 and more desirably greater than about 1,000.
Further testing was conducted to put the prebiotic compounds in competition assay testing, as further described in the test methods section herein. In the competition assay testing, each competition involved testing a single prebiotic compound with the commensal bacteria species of L. crispatus, KC18-1173-1, Bladder (“Lc-3”—Table 2) against the pathogenic bacterial species of S. anginosus, KC18-1131-3B, Bladder (“Sa-2”—Table 2).
• 1. An in house bacterial agar was created based on MRS agar (Kaplan and Hutkins, 2000) where the glucose is substituted for the prebiotic to be tested (either dextran MW ˜6,000, alpha-cyclodextrin, glucomannan, or pectin), bromocresol purple was included as a pH indicator. • 2. Bacteria were enumerated on each agar and color changes were recorded. Method for Competition Assay (Modified from “In Vitro Evaluation of Nutrients that Selectively Confer a Competitive Advantage to Lactobacilli” Vongsa et al, Beneficial Microbes 2016) • 1. Create 2% w/v stock of prebiotic or positive control (glucose/dextrose) as described above. • 2. From a freezer stock subculture the bacteria twice into De Man, Rogosa and Sharpe (MRS) broth (BD Difco, Becton Dickinson, Franklin Lakes, NJ), 37° C., stationary, anaerobic, overnight. • 3. From the last subculture, plate onto an MRS agar plate for L. crispatus KC18-1173-1 or blood agar for S. anginosus KC18-1131-3B, grow 37° C., stationary, anaerobic, overnight. • 4. Create a bacterial suspension by using a sterile tipped swab to transfer colonies of bacteria into a PBS suspension blank to a 2 MacFarland for both species. • 5. Enumerate the starting culture. • 6. Add 9.8 mL of prebiotic media into a 15 mL conical tube. • 7. Add 100 μL of the diluted bacteria to the media, incubate at 37° C., anaerobic, 48 hours. • 8. Harvest 100 μL from the tube containing the prebiotic and plate onto MRS agar and tryptic soy agar (TSA). • 9. Enumerate the bacteria on the MRS agar (both the L. crispatus and the S. anginosus). Small colonies are counted as S. anginosus and large colonies are counted as L. crispatus. • 10. Enumerate the bacteria on the TSA plate. […] Growth of the bacteria in the negative control (CHL media without prebiotic) was subtracted from the growth in the presence of the prebiotic or formulation.
Colonies of L. crispatus and S. anginosus were tested against in the competition method assay test method as described above. The therapeutic effect was calculated by comparing the colony forming units recovered after the competition assay of both L. crispatus and S. anginosus and calculating the ratio of L. crispatus/S. anginosus. A larger number indicates an increase in L. crispatus and/or a decrease in S. anginosus and a smaller number indicates a decrease in L. crispatus and/or an increase in S. anginosus.

L. jensenii = assay: High throughput assay screening of prebiotics; type: cell-based, Lactobacillus jensenii; design: key: ++: if growth and fermentation was equal to or greater than the positive control; +: if growth and fermentation was less than the positive control; +: if weak or no growth or fermentation; +^2: Bacteria demonstrated growth but no fermentation on the prebiotic; settings: 2% w/v prebiotic in API 50 CHL media
Method: Most of the prebiotic compounds were initially tested in a high throughput assay screening process, described further in the Test Methods section herein, but three prebiotics (as noted in Table 3) were tested using a plate assay screening process as described in the Test Methods section herein. The prebiotics were tested against the commensal bacterial species of Lactobacillus crispatus, Lactobacillus gasseri, and Lactobacillus jensenii and against the pathogenic bacterial species of Streptococcus anginosus and Enterococcus faecalis as shown in Table 2. The bacterial species were taken from different sources, listed as culture collection, bladder, and vagina.
The results of the assay plate screening of the prebiotic compounds of Table 1 against the bacterial species of Table 2 is documented in Table 3 with the results being described by the following legend: • ++ if growth and fermentation was equal to or greater than the positive control • + if growth and fermentation was less than the positive control • […] if weak or no growth or fermentation • NT if not tested Some codes were not tested based on the use or non-use by the bacteria, as a way to efficiently move through the assay plate screening to the competition assay, described below.
• 1. Create a 2% w/v stock of prebiotic or positive control (glucose/dextrose) to be tested in API 50 CHL media (Biomerieux, Marcy-I'Étoile, France). API 50 CHL media contains minimal amounts of carbon for growth, and a bromocresol purple as a pH indicator of fermentation. Filter sterilize media with a […]. Store at 4-6° C. until use. • 2. Add 180 μL of media containing the prebiotic to a sterile, flat bottom 96-well microtiter plate (Corning, Corning, NY). • 3. From a freezer stock subculture the bacteria twice into De Man, Rogosa and Sharpe (MRS) broth (BD Difco, Becton Dickinson, Franklin Lakes, NJ), 37° C., stationary, anaerobic, overnight. • 4. From the last subculture, plate onto an MRS agar plate (Teknova, Hollister, CA) and grow 37° C., stationary, anaerobic, overnight. • 5. Create a bacterial suspension by using a sterile tipped swab to transfer colonies of bacteria into a PBS suspension blank to a 0.5 MacFarland (S. anginosus or E. faecalis) or a 1 MacFarland (Lactobacillus species) from the MRS agar plate. • 6. Enumerate the starting culture. • 7. Inoculate the media alone and media containing the prebiotic or positive control with 20 μL of the bacterial suspension. • 8. Place the plate into a spectrophotometer (Molecular Devices, San Jose, CA) and read the plate every 20 minutes for 24-48 hours. Read wavelengths (OD 430, OD 590, and OD 660). A color change to yellow caused by a drop in pH will be read by an increase in the OD430 value and a decrease in the OD590 value and is indicative of bacterial fermentation. An increase in OD660 values is indicative of an increase in turbidity and bacterial growth.

L. crispatus = assay: High throughput assay screening of prebiotics; type: cell-based, Lactobacillus crispatus; design: key: ++: if growth and fermentation was equal to or greater than the positive control; +: if growth and fermentation was less than the positive control; +: if weak or no growth or fermentation; +^2: Bacteria demonstrated growth but no fermentation on the prebiotic; settings: 2% w/v prebiotic in API 50 CHL media; for growth and fermentation vs positive control, Lc-4: L. crispatus KC18-1174-1, Vagina
Procedure, shortened: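 Prebiotic or glucose/dextrose positive control in API 50 CHL minimal-carbon medium with bromocresol purple, inoculated with bacterial suspension (0.5 McFarland streptococci/enterococci, 1 McFarland lactobacilli). Read every 20 min for 24-48 h; OD430 rise/OD590 fall marks fermentation, OD660 rise marks growth, scored versus positive control.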

For `CO[C@H]1O[C@H](CO)[C@@H](O)[C@H](O)[C@H]1O` [Alpha-Methyl-D-Glucoside], the “Therapeutic Effect (ratio of L. crispatus/S. anginosus)” value ([1]; Table 6, prebiotic 2%) was 1.21E−01 (2×) and 1.74E−01 (2×), the “growth and fermentation vs positive control, Lj-2” value (L. jensenii; L. jensenii KC17-4347-1, Bladder) was “+” and the “growth and fermentation vs positive control, Lc-2” value (L. crispatus; L. crispatus KC16-7134-3C, Bladder) was “+”. For the same molecule, the “growth and fermentation vs positive control, Lc-4” value (L. crispatus) was “+”.

`OC[C@H]1O[C@H](OC[C@H]2OC(O)(CO)[C@@H](O)[C@@H]2O)[C@H](O)[C@@H](O)[C@@H]1O` (some centres unmarked) [Palatinose (isomaltulose), isomaltulose] was tested, and the “outcome of the bacterial competition assay, in words” value ([1]; Tables 6 and 7) was “supported the growth of Lactobacillus crispatus over Streptococcus anginosus”, the “growth and fermentation vs positive control, Lj-1” value (L. jensenii; L. jensenii KC17-4297-18, Bladder) was “+” and the “growth and fermentation vs positive control, Lc-3” value (L. crispatus; L. crispatus KC18-1173-1, Bladder) was “++”. For the same molecule, the “growth and fermentation vs positive control, Lc-4” value (L. crispatus) was “++”.
